Measurements: publication PMC11477289, “Low-Basicity 5-HT6 Receptor Ligands from the Group of Cyclic Arylguanidine Derivatives and Their Antiproliferative Activity Evaluation” (International Journal of Molecular Sciences, 2024)

What was measured:
CYP3A4 = target: T1, CYP3A4 (Homo sapiens, UniProt P08684); assay: CYP3A4 P450-Glo assay (drug–drug interactions); type: biochemical; conditions: 0.01–25 µM
T1 construct: purchased Promega
Protocol: (§1) The potential risk of drug–drug interactions (DDIs) was examined in luminescence-based CYP3A4 and CYP2D6 P450-Glo assays (Promega, Madison, WI, USA) (Figure 2A,B).
(§2) The influence on CYP3A4 and CYP2D6 activity by ligands was analyzed with luminescent CYP3A4 P450-Glo and CYP2D6 P450-Glo^TM (Madison, WI, USA). The compounds were tested in triplicate. The bioluminescence signal was measured with a microplate reader, Spark Cyto (Tecan, Männedorf, Switzerland), in the luminescence mode. Compounds were tested in triplicate in the range of 0.01–25 µM for both isoforms’ P450 cytochrome. KE and QD were used as the reference compounds for CYP3A4 and CYP2D6, respectively.

CYP2D6 = target: T2, CYP2D6 (Homo sapiens, UniProt P10635); assay: CYP2D6 P450-Glo assay (drug–drug interactions); type: biochemical; conditions: 0.01–25 µM
T2 construct: purchased Promega
T2 sequence (P10635 whole entry): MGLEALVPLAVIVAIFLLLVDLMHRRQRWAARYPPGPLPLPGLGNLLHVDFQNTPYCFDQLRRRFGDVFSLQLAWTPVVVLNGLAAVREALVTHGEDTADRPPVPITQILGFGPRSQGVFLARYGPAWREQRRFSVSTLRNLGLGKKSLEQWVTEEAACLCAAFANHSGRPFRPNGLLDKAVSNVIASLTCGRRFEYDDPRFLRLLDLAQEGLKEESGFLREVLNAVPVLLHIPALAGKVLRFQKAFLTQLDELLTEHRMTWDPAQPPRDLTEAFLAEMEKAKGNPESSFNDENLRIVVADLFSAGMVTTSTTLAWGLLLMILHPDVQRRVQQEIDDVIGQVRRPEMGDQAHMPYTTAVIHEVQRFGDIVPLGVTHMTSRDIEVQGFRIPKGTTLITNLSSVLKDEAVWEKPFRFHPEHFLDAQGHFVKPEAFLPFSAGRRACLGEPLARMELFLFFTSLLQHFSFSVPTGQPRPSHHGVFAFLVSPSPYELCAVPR
Protocol: as §1, §2

[1] = system: HepG2 human hepatoma cell line; assay: Hepatotoxicity, MTS assay; type: cell-based; conditions: 1–10 µM, 48 h
Protocol: The safety profile was estimated in the hepatotoxicity assay in the hepatoma HepG2 cell line (Figure 2B).
Hepatotoxicity was evaluated employing an MTS assay with a HepG2 human hepatoma cell line (ATCC: HB-8065). In brief, the cells were incubated for 48 h in 96-well plates with PR 68 (concentration range: 1–100 μM), or doxorubicin (DX, 1 µM; Sigma-Aldrich), which served as a control. Compounds were tested in a single experiment in quadruplicate. The absorbance in the MTS assay was measured by the Spark Cyto microplate reader (Tecan, Männedorf, Switzerland).

T1 sequence (P08684 whole entry): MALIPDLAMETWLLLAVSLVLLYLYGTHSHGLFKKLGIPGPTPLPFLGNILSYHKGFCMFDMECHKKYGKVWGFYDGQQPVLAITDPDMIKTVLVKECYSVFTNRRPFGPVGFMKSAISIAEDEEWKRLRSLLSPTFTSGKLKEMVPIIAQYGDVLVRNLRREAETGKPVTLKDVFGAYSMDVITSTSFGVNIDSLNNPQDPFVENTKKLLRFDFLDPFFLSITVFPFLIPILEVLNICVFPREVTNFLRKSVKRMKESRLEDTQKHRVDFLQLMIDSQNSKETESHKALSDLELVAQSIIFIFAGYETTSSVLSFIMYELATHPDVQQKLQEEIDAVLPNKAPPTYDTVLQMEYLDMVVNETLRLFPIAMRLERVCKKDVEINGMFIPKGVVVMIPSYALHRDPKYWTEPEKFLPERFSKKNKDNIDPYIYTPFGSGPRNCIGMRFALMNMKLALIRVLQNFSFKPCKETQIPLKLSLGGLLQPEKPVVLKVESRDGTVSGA

Question: For `CC1NC(NS(=O)(=O)c2cccc3ccccc23)=Nc2cccc(Cl)c21` (stereo not drawn) [PR 68, N -(5-chloro-4-methyl-3,4-dihydroquinazolin-2-yl)naphthalene-1-sulfonamide], which “drug–drug interactions, CYP3A4 activity” value (CYP3A4) is on record?
Answer: should not exhibit drug–drug interactions

Question: And the “drug–drug interactions, CYP2D6 activity” value (CYP2D6)?
Answer: should not exhibit drug–drug interactions

Question: What about the “hepatotoxicity, HepG2 viability” value [1] of the same compound?
Answer: did not exhibit hepatotoxic properties
